One block for each molecule: values may come before it.
What was measured:
NMDA receptor = test: NMDA receptor-mediated EPSPs in hippocampal slices; type: cell-based, rat; conditions: 30 μM, in the presence of CNQX
Experimental: NMDA receptor-mediated EPSP's were isolated by applying 30 μM of the non-NMDA blocker 6-cyano-7-nitroquinoxaline-2,3-dione (CNQX; Tocris) starting 20 minutes prior to the application of antibodies or glycopeptides.

[1] = test system: pyramidal neurons in the CA1 region of rat hippocampal slices; test: Long term potentiation (LTP) induced by theta burst stimulation in hippocampal slices; type: cell-based; conditions: perfusion of 10 μM
Experimental: Transverse hippocampal slices (400 μm) from halothane-anaesthetized male Wistar rats (180-220 g) were prepared using standard techniques. Slices were maintained in an interface chamber and initially allowed to recover for 45 min. in a hyperosmolar (320 mOsm/kg) artificial cerebrospinal fluid (ACSF) at room temperature. The bath temperature was then raised to 30° C. and the medium was changed to a normotonic ACSF (307 mOsm/kg) containing (in mM): NaCl, 124.0; KCl, 2.5; MgSO24, 2.0: CaCl2, 2.5; KH2PO4, 1.25; NaHCO3, 26.0; glucose, 10; sucrose, 4; bubbled with 95% O2/5% CO2 (pH 7.4); perfusion rate: 0.75 ml/min. The Schaffer collateral/commissural fibers were stimulated by twisted platinum-iridium wires (50 μm diameter) placed in the stratum radiatum of the CA1 region. Test stimuli consisted in monophasic impulses of 100 μs duration every 30 seconds and the stimulus strength was adjusted to obtain 30% of the maximal EPSP amplitude (maximal EPSP without superimposed population spike). EPSP's were recorded from the CA1 stratum radiatum by means of 2 glass micropipettes (2 M NaCl, 1-5 MΩ) positioned about […] apart from the stimulation electrode on each side. […]

[2] = test system: mouse mesencephalon cells; test: Mesencephalon cells cultured on L1-coated plates, stained for dopamine; type: cell-based; conditions: plates coated with laminin, 7 days
Experimental: An experiment was performed to further elucidate the activity of L1 with CNS nerve tissue. Specifically, aliquot samples of mouse mesencephalon cells were plated and cultured on four separate plates having media prepared as follows: the first control plate was coated with poly-L-lysine alone; a second plate was coated with poly-L-lysine and L1; a third control plate was coated with poly-L-lysine and laminin; and a fourth plate was coated with poly-L-lysine, laminin and L1. All plates received aliquot amounts of cells and were incubated under identical conditions. After 7 days, the plates were all stained for the presence of dopamine and thereafter observed.

small cerebellar neurons = test: Neurite outgrowth of small cerebellar neurons on substrate-coated L1 monoclonal antibodies; type: cell-based; conditions: neurons on L1 and antibody 557.B6
Excerpt: To determine the domains of neural cell adhesion molecule L1 involved in neurite outgrowth, monoclonal antibodies against L1 were generated and their effects on neurite outgrowth of small cerebellar neurons in culture investigated. […] These observations indicate for the first time a distinct site on cell surface-bound L1 as a prominent signal transducing domain through which the recognition events appear to be funnelled to trigger neurite outgrowth, increase turnover of inositol phosphates and elevate intracellular levels of Ca^2+.

[3] = test system: mesencephalic neurons (DBH+); test: Survival and neurite outgrowth of DBH+ mesencephalic neurons; type: cell-based, rat; conditions: DBH+ neurons after 7 days in vitro, mean ± SEM
Experimental: Soluble L1 was made in COS cells as a recombinant L1-Fc fusion protein by the procedure described in Neuron 14:57-66, 1995. The recombinant protein was purified by Protein A affinity chromatography, and was used either as a substrate coated onto plastic or as a soluble molecule added to the culture medium at approximately 1-10 μg/ml. Neurite outgrowth and survival of mesencephalic neurons from day 17 rat embryos were examined in culture after 7 days in vitro maintenance. Dopaminergic neurons were recognized by immunostaining for dopamine-β-hydroxylase (DBH) and quantified using IBAS morphometric equipment. Cultures with added soluble L1-Fc were maintained on poly-DL-ornithine (PORN) and substrate-coated L1-Fc was added on top of previously coated PORN (under conditions described in Appel et al, J. Neuroscience 13:4764-4775, 1993). NCAM-Fc was used as a control.

hippocampal neurons = test: Neurite outgrowth of hippocampal neurons in coculture with L929 transfectants; type: cell-based, rat; conditions: CHL1-transfected L929 cells, 11-12 h coculture
Experimental: In addition to the studies conducted and reviewed above, further experiments were conducted withy CHL1 to define its role in neurite outgrowth and the parameters of its action. Thus and as depicted and described earlier with reference to FIGS. 28A-C, hippocampal neurons were co-cultured with L929 transfectants and L929 parental cells. Particularly, hippocampal neurons derived from rats of embryonal day 18 were cultured in subconfluent monolayers of L929-transfectants or parental L929 cells. After 11-12 h of coculture the cells were fixed and labeled with monoclonal antibody 412 (recognizing the HNK-1 carbohydrate epitope) or a polyclonal antibody against NCAM. For measurement of the total neurite length only the longest neurite per each branch was determined due to the highly branched character of the neurons in these cultures. The results of the experiments are given below with letter reference to the respective figures within FIG. 28. […] Neurons were cocultured with CHL1-transfectants (CHL1) or parental L929 cells (L929) with (+AB) or without polyclonal antibodies against recombinant CHL1 (500 μg/ml of purified IgG, added 45 min after plating) and on L1-transfectants. The mean total neurite length of 4-5 independent experiments is shown. Error bars are standard error of the mean. (B) Different CHL1 lines promote neurite outgrowth better than L1. […]

cerebellar neurons = test: Neurite outgrowth of small cerebellar neurons in coculture with L929 transfectants; type: cell-based, mouse; conditions: CHL1-transfected L929 cells, 20 h
Experimental: CHL1 activity was also tested with cerebellar neurons as set forth with reference to FIG. 29. Thus, cerebellar neurons derived from 6-7 day old mice were cultured for 20 h on CHL1-transfectants (CHL1), CHL1-transfected non-expressing L929 cells (Mock), parental L929, or L1-transfectants (L1). The results are likewise set forth in paragraphs that correspond in designation to the sub-figures within FIG. 29. […] The mean of total neurite length of three experiments is shown. Error bars are standard error of the mean. (B) CHL1 promotes neurite outgrowth also of small cerebellar neurons better than L1. The total neurite length is given as percent of L929 cells as a control (ctr). Error bars are standard error of the mean. (C) Increase of neurite outgrowth of cerebellar neurons by CHL1 affects all size classes of neurites. Cumulative frequency of distribution plot of the total neurite length of the percentage of neurons with neurites longer than or equal to a certain length x (vertical axis) was plotted as a function of neurite length x (horizontal axis).

NMDA receptor-mediated EPSPs (NMDA receptor): completely suppressed
Molecule: N[C@H](CCCP(=O)(O)O)C(=O)O [D-AP5, D(−)-2-amino-5-phosphonopentanoic acid]
induction of LTP [1]: totally prevented

Molecule: laminin
neurite outgrowth and cell number [2]: greater neurite outgrowth, but not more cells than those coated with L1

Molecule: pertussis toxin
inhibition of neurite outgrowth (small cerebellar neurons): inhibit neurite outgrowth on L1 and antibody 557.B6

Molecule: soluble L1: recombinant L1-Fc fusion protein made in COS cells, added to the culture medium at 1-10 μg/ml
number of neurons ([3]; per unit field): 98 ± 7 | length of neurites (total neurite length per neuron) [3]: 135 ± 27 μm

B1: CHL1: close homolog of L1, presented by CHL1-transfected L929 cells (protein)
chain: MMELPLCGRGLILSLIFLLLKLSAAEIPLSVQQVPTIVKQSYVQVAFPFDEYFQIECEAKGNPEPIFSWTKDDKPFDLSDPRIIAANNSGTFKIPNEGHISHFQGKYRCFASNRLGTAVSEEIEFIVPGVPKFPKEKIEPIDVEEGDSIVLPCNPPKGLPPLHIYWMNIELEHIEQDERVYMSQRGDLYFANVEENDSRNDYCCFAAFPKLRTIVQKMPMKLTVNSSNSIKQRKPKLLLPPAQMGSLSAKTVLKGDTLLLECFAEGLPTPHIQWSKPGSELPEGRATIEVHEKTLKIENISYQDRGNYRCTANNLLGKASHDFHVTVEEPPRWKKKPQSAVYSTGSSGILLCEAEGEPQPTIKWRLNGLPIEKHPFPGDFMFPREISFTNLLFNHTGVYQCEASNIHGTILANANIDVIDVIPLIKTKNEENYATVVGYSAFLHCEYFASPKATVVWEVADETHPLEGDRYHTHENGTLEIYRTTEEDAGSYSCWVDNAMGKAVITANLDIRNATKLRVSPKNPRIPKSHVLELYCESQCDSHLKHSLKLSWSKDGEAFEMNGTEDGRIVIDGAYLTISNITAEDQGVYSCSAQTSLDSTSEKTQVTVLGVPDPPETFTCQKDKNRSVRLLREAGDDHNSKSASTIVEFEGNREEPGKWEELTRVQGEETDVVLSLAPYVRYQFRVTAVNEVGRSHASLPSDHHETPPAAPDKNPQNIRVQASQPKEMIIKWEPLKSMEQNGPGLEYKVSWKPQGAPEEWEEEIVTNHTLRVMTPTVYAPYDVKVQAINQLGSSPDPQPVTLYSGEDYPSTAPVIQRVDVMNSTLVKVTWSSIPKETVHGLLRGYQINWWKTKSLLDGRTHPKEVNILRFSGQRNSGMVPSLDPFSEFHLTVLAYNSKGAGPESEPYIFQTPEGVPEQPSFLKVIKVDKDTATLSWGLPKKLNGNLTGYLLQYQIINDTYELGELNEINVTTPSKSSWHLSNLNSTTKYKFYLRACTSRGCGKPISEEGATLGEGSKGIRKITEGVNVTQKIHPVEVLVPGAEHIVHLMTKNWGDNDSIFQDVIETRGREYAGLYDDISTQGWFIGLMCAIALLTLILLTICFVKRNRGGKYSVKEKEDLHPDPEVQSAKDETFGEYSDSDEKPLKGSLRSLNRNMQPTESADSLVEYGEGDQSIFNEDGSFIGAYTGAKEKGSVESNGSSTATFPLRA
modifications: murine
notes: close homolog of L1, presented by CHL1-transfected L929 cells
neurite outgrowth (hippocampal neurons): Neurite outgrowth is promoted by CHL1 and inhibitable by antibodies | neurite outgrowth (cerebellar neurons): promotes neurite outgrowth of small cerebellar neurons

Reference: patent US6576607B1, “Methods using CNS neurite outgrowth modulators” (Acorda Therapeutics, priority 1995, dated 2003)
